Laboratory results taken from patent US9708305B2, “Substituted 1,2,3,4-tetrahydroisoquinoline derivatives for the treatment of hormone-dependent diseases” (UNIVERSITÉ LAVAL, priority 2013, dated 2017).
Like-named read-outs stand apart in the source and are kept apart here.

Key:
steroid sulfatase (STS) = molecular target: T1, steroid sulfatase (STS) (Homo sapiens, UniProt P08842); test: Steroid sulfatase (STS) inhibition, [3H]-E1S to [3H]-E1, homogenate of transfected HEK-293 cells; assay type: biochemical; conditions: for inhibition of STS: homogenates of transfected HEK-293 cells
T1 construct: expressed in transfected cells; host or cells: HEK-293 cells stably transfected with STS (G418 selection), obtained from Dr. Van Luu-The; used as freeze-thaw homogenate
T1 sequence (P08842 22-583): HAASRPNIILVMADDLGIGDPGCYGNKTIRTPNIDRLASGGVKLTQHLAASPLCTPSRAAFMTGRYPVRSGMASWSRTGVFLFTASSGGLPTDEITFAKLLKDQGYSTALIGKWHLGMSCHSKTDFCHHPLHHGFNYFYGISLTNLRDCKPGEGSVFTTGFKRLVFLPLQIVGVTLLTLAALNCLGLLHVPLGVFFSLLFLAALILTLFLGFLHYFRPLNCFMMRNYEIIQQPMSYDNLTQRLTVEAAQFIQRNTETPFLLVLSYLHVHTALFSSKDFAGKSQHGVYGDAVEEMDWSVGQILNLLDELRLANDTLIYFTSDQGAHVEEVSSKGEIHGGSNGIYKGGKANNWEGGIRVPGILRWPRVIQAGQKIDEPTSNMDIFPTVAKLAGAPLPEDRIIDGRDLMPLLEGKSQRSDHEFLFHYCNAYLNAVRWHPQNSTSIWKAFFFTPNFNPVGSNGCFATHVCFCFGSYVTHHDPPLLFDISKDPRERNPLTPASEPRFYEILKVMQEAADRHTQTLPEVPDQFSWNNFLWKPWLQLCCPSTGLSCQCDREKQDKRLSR
Method: To test STS inhibition, we used homogenated HEK-293 cells overexpressing STS and evaluated the capacity of our compounds to inhibit the conversion of [^3H]-E1S into [^3H]-E1. […] This is outlined in FIG. 5.
An enzymatic assay previously described was used for the inhibition of the transformation of estrone sulfate (E1S) to estrone (E1) by STS.^72 Briefly, the transfected HEK-293 cells were homogenized by repeated (5 times) cycles of freezing (−80° C.) and thawing on ice (4° C.). The homogenates were then incubated for 2 h at 37° C. (shaking water bath) with or without inhibitors (0.01 μM-1 μM) in presence of [^3H]-E1S (9 nM), adjusted to 1 μM with E1S, in a Tris-acetate buffer (pH 7.4) containing 5 mM EDTA and 10% glycerol. After the incubation, 1 mL of xylene was added to each tube and the solutions were then centrifuged at 3000 rpm for 20 min to separate the organic ([^3H]-E1) and aqueous ([^3H]-E1S) phases. Once 500 μL of each phase was added to 10 mL of Biodegradable Counting Scintillant, the radioactivity of samples was recorded using a Wallac 1411 Liquid Scintillation Counter. The percentage of inhibition was determined by comparison with the control (buffer+homogenate+[^3H]-E1S) which was set to 0% of inhibition. IC50 value was obtained using GraphPad Prism 5 (GraphPad Software, La Jolla, Calif.).

T-47D cells [1] = test: T-47D cell proliferation (estrogenicity / cytotoxicity), MTS; assay type: cell-based; conditions: for estrogenicity / cytotoxicity on T-47D cells / activity at 0.01 µM: 0.01 μM; for estrogenicity / cytotoxicity on T-47D cells: 0.1 μM and 1 μM; for activity at 0.01 µM / activity at 0.1 µM / activity at 1 µM: Homo sapiens, T47D, control cells set to 100%, mean±SD; for activity at 1 µM / Breast cancer cells T-47D (ER+) Agonist activity (%): 1 μM; for Breast cancer cells T-47D (ER+) Agonist activity (%): in % of control (100%; 0.1 nM of estradiol)
Method: The library of phenolic compounds described above was tested on estrogen-sensitive breast cancer T-47D cells.
In Table 1, cell proliferation of control cells is set to 100%. Results are expressed as mean±SD of one experiment in triplicate.
(§1) CellTitter 96® Aqueous One Solution Cell Proliferation Assay was used as an indirect colorimetric measurement of cell proliferation according to the manufacturer's instructions. Briefly, after the treatments, 20 μL of MTS solution was added to each well (100 μL) of the plates and incubated at 37° C. for 2 h (Saos-2) or 4 h (T-47D). The absorbance at 490 nm was then measured with a Thermo max microplate reader (Molecular Devices, Sunnyvale, Calif.). The control (culture media+DMSO) is set to 100% of cell proliferation.
(§2) The cells were plated in 96-well plates at a density of 3 000 cells/well and allowed to attach for 48 h. After this pre-incubation, the inhibitors and the reference compounds diluted in fresh culture media were added to the wells and replaced every 2 days for 7 days of treatment.

[2] = test system: osteoblast-like Saos-2 cells; test: Saos-2 cell proliferation, MTS; assay type: cell-based; conditions: for Saos-2 cell proliferation, dose response: 1 nM to 1 μM; for Saos-2 cell proliferation, dose response / Saos-2 cell proliferation: 7 days; for Bone cells Saos-2 (ER+) SERM effect Proliferative activity (%): in percentage of control (100%; 0.1 nM of estradiol); for Saos-2 cell proliferation: control 100%
Description: First, we wanted to evaluate their effect on cell proliferation. […] This is outlined in FIG. 8A. […] One of the main roles of osteoblasts in bone tissue is to construct a calcified extracellular matrix.^15 As such, bone formation is not principally due to osteoblasts proliferation but rather osteoblasts maturation into mature osteocytes. […] This is outlined in FIG. 8B.
as §1
Saos-2 cells were suspended in phenol-red free McCoy's 5A medium supplemented with 10% charcoal-stripped FBS, penicillin (100 IU/mL) and streptomycin (100 μg/mL). The cells were seeded in 96-well plates at a density of 3 000 cells/well and allowed to attach. After 24 h, the inhibitors and the reference compounds diluted in fresh culture media were added to the wells and replaced every 2 days for 7 days of treatment.

[3] = test system: alkaline phosphatase (ALP) activity in Saos-2 cells; test: Alkaline phosphatase (ALP) activity in Saos-2 cells; assay type: cell-based
Method: ALP is an enzyme that releases inorganic phosphate from different intracellular substrates such as pyrophosphate and pyridoxal 5′-phosphate.^63 The inorganic phosphate is used in the formation of hydroxyapatite crystals which are then inserted in the extracellular protein scaffold to form the solid part of bone tissue.
Saos-2 cells were treated similarly as reported in the cell proliferation assay. The cells were seeded at a density of 2 000 cells/well and were treated with the inhibitors and the reference compounds for 3 days. The alkaline phosphatase (ALP) activity was measured using Sensolyte® pNPP Alkaline Phosphatase Assay Kit *Colorimetric* (AnaSpec, Fremont, Calif.) following the manufacturer's protocol. Briefly, after the 3 days of treatment, the cells were washed twice with washing buffer (provided with the kit) and lysed with 0.2% Triton X-100. The cell lysates were centrifuged and the supernatants were used to determine the ALP activity. The supernatants were deposed in a 96-well plate and incubated 30 min with a p-nitrophenyl phosphate solution (provided with the kit). The absorbance at 405 nm was measured with a Thermo max microplate reader (Molecular Devices, Sunnyvale, Calif.). The control (culture media+DMSO) is set to 100% of alkaline phosphatase activity.

T-47D cells [4] = test: T-47D cell proliferation in presence of E2 (antiestrogenicity); assay type: cell-based; conditions: for inhibition at 1 µM: Homo sapiens, T47D, read-out: Breast cancer cells T-47D (ER+) Antagonist activity (%)
Method: as §1, §2

[5] = homogenated HEK-293 cells overexpressing STS, [3H]-E1S to [3H]-E1, read-out: STS inhibition IC50
[6] = transformation of E1S into E1 in homogenate of HEK-293 cells transfected with STS, read-out: Steroid Sulfatase Inhibition IC50

Structure (SMILES)	inhibition of STS (steroid sulfatase (STS))	estrogenicity / cytotoxicity on T-47D cells (T-47D cells [1])	activity at 0.01 µM (T-47D cells [1])	activity at 0.1 µM (T-47D cells [1])	activity at 1 µM (T-47D cells [1])	also measured
COc1ccc(CN(Cc2ccc(C(=O)N3CCc4ccc(O)cc4C3)cc2)Cc2ccccn2)cc1 [Compound 31, (7-hydroxy-3,4-dihydroisoquinolin-2(1H)-yl)(4-{[(4-methoxybenzyl)(pyridin-2-ylmethyl)amino]methyl}phenyl)methanone]	no significant inhibition	neither estrogenicity nor cytotoxicity	105.6 ± 0.6%	105 ± 7.4%	101 ± 7.9%	–
COc1ccc(CN(Cc2ccc(C(=O)N3CCc4ccc(OS(N)(=O)=O)cc4C3)cc2)Cc2ccccn2)cc1 [Compound 34, 2-[(4-{[(4-methoxybenzyl)(pyridin-2-ylmethyl)amino]methyl}phenyl)carbonyl]-1,2,3,4-tetrahydroisoquinolin-7-yl sulfamate]	–	–	–	–	–	IC50 (steroid sulfatase (STS); [5]): 3.9 nM
O=C(c1ccc(CN(CCN2CCOCC2)Cc2ccco2)cc1)N1CCc2ccc(O)cc2C1 [Compound 27, [4-({(furan-2-ylmethyl)[2-(morpholin-4-yl)ethyl]amino}methyl)phenyl](7-hydroxy-3,4-dihydroisoquinolin-2(1H)-yl)methanone]	–	–	108 ± 5.5%	106 ± 1.5%	119 ± 9.6%	–
O=C(c1ccc(CN(Cc2ccccn2)Cc2ccccc2OCCCN2CCCCC2)cc1)N1CCc2ccc(O)cc2C1 [Compound 19, (7-hydroxy-3,4-dihydroisoquinolin-2(1H)-yl)(4-{[{2-[3-(piperidin-1-yl)propoxy]benzyl}(pyridin-2-ylmethyl)amino]methyl}phenyl)methanone]	–	–	103 ± 6.9%	99.8 ± 4.2%	37.1 ± 4.2%	–
NS(=O)(=O)Oc1ccc2c(c1)CN(C(=O)c1ccc(CN(Cc3ccccn3)Cc3ccco3)cc1)CC2 [Compound 32, 2-[(4-{[(furan-2-ylmethyl)(pyridin-2-ylmethyl)amino]methyl}phenyl)carbonyl]-1,2,3,4-tetrahydroisoquinolin-7-yl sulfamate]	–	–	–	–	–	IC50 (steroid sulfatase (STS); [5]): 16.6 nM
Cc1ccc(CN(Cc2ccc(C(=O)N3CCc4ccc(O)cc4C3)cc2)Cc2ccco2)s1 [Compound 29, [4-({(furan-2-ylmethyl)[(5-methylthiophen-2-yl)methyl]amino}methyl)phenyl](7-hydroxy-3,4-dihydroisoquinolin-2(1H)-yl)methanone]	no significant inhibition	neither estrogenicity nor cytotoxicity	97.1 ± 2.6%	103 ± 1.8%	96.8 ± 2.2%	Saos-2 cell proliferation, dose response [2]: apparent dose-dependent response; Bone cells Saos-2 (ER+) SERM effect Proliferative activity (%) ([2]; 0.1 μM): 175%; Saos-2 cell proliferation ([2]; 1 μM): ~150%; Bone cells Saos-2 (ER+) SERM effect Proliferative activity (%) ([2]; 1 μM): 250%; IC50 (steroid sulfatase (STS); [6]): > 1000 nM; Bone cells Saos-2 (ER+) SERM effect Alkaline phosphatase activity (%) ([3]; 0.1 nM): 114%; stimulation of ALP activity in presence of ICI-164,384 or MPP + PHTPP ([3]; 0.1 nM compound, antagonists 1 μM, 3 days): completely blocked the stimulation; ALP activity in Saos-2 cells ([3]; 0.1 nM, 3 days, control 100%): 138%; Breast cancer cells T-47D (ER+) Agonist activity (%) (T-47D cells [1]): 0%; blockade of the stimulation induced by E2 in T-47D cells (T-47D cells [4]; 5 μM, E2 0.1 nM): approximately 84%; inhibition at 1 µM (T-47D cells [4]): 46%
O=C(c1ccc(CN(Cc2ccccn2)Cc2ccco2)cc1)N1CCc2ccc(O)cc2C1 [Compound 25, (4-{[(furan-2-ylmethyl)(pyridin-2-ylmethyl)amino]methyl}phenyl)(7-hydroxy-3,4-dihydroisoquinolin-2(1H)-yl)methanone]	no significant inhibition	neither estrogenicity nor cytotoxicity	104 ± 2.3%	103 ± 2.5%	104 ± 6.5%	–
Cc1ccc(CN(Cc2ccc(C(=O)N3CCc4ccc(O)cc4C3)cc2)Cc2ccccn2)s1 [Compound 28, (7-hydroxy-3,4-dihydroisoquinolin-2(1H)-yl)[4-({[(5-methylthiophen-2-yl)methyl](pyridin-2-ylmethyl)amino}methyl)phenyl]methanone]	–	–	101 ± 3.8%	105 ± 4.4%	78.9 ± 6.8%	–
O=C(c1ccc(CN(CCCn2ccnc2)Cc2ccco2)cc1)N1CCc2ccc(O)cc2C1 [Compound 24, [4-({(furan-2-ylmethyl)[3-(1H-imidazol-1-yl)propyl]amino}methyl)phenyl](7-hydroxy-3,4-dihydroisoquinolin-2(1H)-yl)methanone]	–	–	94.9 ± 1.3%	98.5 ± 4.5%	115 ± 5.9%	–
Cc1ccc(CN(Cc2ccc(C(=O)N3CCc4ccc(OS(N)(=O)=O)cc4C3)cc2)Cc2ccco2)s1 [Compound 33, 2-{[4-({(furan-2-ylmethyl)[(5-methylthiophen-2-yl)methyl]amino}methyl)phenyl]carbonyl}-1,2,3,4-tetrahydroisoquinolin-7-yl sulfamate]	–	–	–	–	–	Saos-2 cell proliferation, dose response [2]: apparent dose-dependent response; Bone cells Saos-2 (ER+) SERM effect Proliferative activity (%) ([2]; 0.1 μM): 33%; Saos-2 cell proliferation ([2]; 1 μM): ~150%; Bone cells Saos-2 (ER+) SERM effect Proliferative activity (%) ([2]; 1 μM): 211%; IC50 (steroid sulfatase (STS); [6]): 3.9 nM; Bone cells Saos-2 (ER+) SERM effect Alkaline phosphatase activity (%) ([3]; 0.1 nM): 48%; Breast cancer cells T-47D (ER+) Agonist activity (%) (T-47D cells [1]): 0%; inhibition at 1 µM (T-47D cells [4]): 25%
